≈ marks a conversion by molar mass, not a printed value.
Key:
Hep-2 = assay: Solid tumor cell growth inhibition, MTT, 72 h; type: cell-based, human; details: Homo sapiens, HEp-2; 72 h, MTT
Summary of the method: (§1)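 Plating density was 6000 cells per well, in DMEM High Glucose medium with 10% serum, kept at 37° C in 5% CO2 throughout.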

CNE = assay: Solid tumor cell growth inhibition, MTT, 72 h; type: cell-based, human; details: for IC50 / IC90: Homo sapiens, CNE, 72 h, MTT
Summary of the method: as §1

MGC-803 = assay: Solid tumor cell growth inhibition, MTT, 72 h; type: cell-based, human; details: Homo sapiens, MGC-803; 72 h, MTT
Summary of the method: as §1

Hela = assay: Solid tumor cell growth inhibition, MTT, 72 h; type: cell-based, human; details: Homo sapiens, HeLa; 72 h, MTT
Summary of the method: as §1

RPMI 8226 = assay: Multiple myeloma cell growth inhibition, MTT, 72 h; type: cell-based; details: Homo sapiens
Summary of the method: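 Growth inhibition by MTT after 72 h drug exposure (37 °C, 5% CO2) over a concentration range of oridonin derivatives. RPMI 8226 cells plated at 6000 per well and dosed the following day.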

NB4 = assay: Leukemia cell growth inhibition, MTT, 72 h; type: cell-based, human; details: for IC50 / IC90: Homo sapiens, NB-4, 72 h, MTT
Summary of the method: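 MTT read-out of viable cell concentration after 72 hours of exposure at 37° C under 5% CO2. Compounds were dosed at several concentrations one day after plating 6000 cells per well.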

Jurkat = assay: Leukemia cell growth inhibition, MTT, 72 h; type: cell-based, human; details: Homo sapiens, Jurkat; 72 h, MTT
Summary of the method: (§2)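 Leukemia lines used were drug-resistant CML K562/ADR, ALL lines H9 and Jurkat, and AML-M2 Kasumi-1. Each was plated at 6000 cells per well and exposed to varying compound concentrations from day two for 72 hours, then assayed by MTT.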

H9 = assay: Leukemia cell growth inhibition, MTT, 72 h; type: cell-based, human; details: for IC50 / IC90: Homo sapiens, H9, 72 h, MTT
Summary of the method: as §2

PANC-1 = assay: Solid tumor cell growth inhibition, MTT, 72 h; type: cell-based; details: Homo sapiens
Summary of the method: as §1

Becap-37 = assay: Solid tumor cell growth inhibition, MTT, 72 h; type: cell-based; details: Homo sapiens
Summary of the method: as §1

U87-MG = assay: Solid tumor cell growth inhibition, MTT, 72 h; type: cell-based; details: Homo sapiens, U-87 MG
Summary of the method: as §1

Hep G2 = assay: Solid tumor cell growth inhibition, MTT, 72 h; type: cell-based; details: Homo sapiens, HepG2
Summary of the method: as §1

CaEs-17 = assay: Solid tumor cell growth inhibition, MTT, 72 h; type: cell-based; details: Homo sapiens, CaEs17
Summary of the method: as §1

MG-63 = assay: Solid tumor cell growth inhibition, MTT, 72 h; type: cell-based; details: Homo sapiens
Summary of the method: as §1

PC-3 = assay: Solid tumor cell growth inhibition, MTT, 72 h; type: cell-based; details: Homo sapiens
Summary of the method: as §1

A549 = assay: Solid tumor cell growth inhibition, MTT, 72 h; type: cell-based; details: Homo sapiens
Summary of the method: as §1

RKO = assay: Solid tumor cell growth inhibition, MTT, 72 h; type: cell-based; details: Homo sapiens
Summary of the method: as §1

SK-OV-3 = assay: Solid tumor cell growth inhibition, MTT, 72 h; type: cell-based; details: Homo sapiens, SK-OV-3, 72 h, MTT; for IC50: read-out: IC50 SK-OV-3; for IC90: read-out: IC90 SK-OV-3
Summary of the method: as §1

Kasumi-1 = assay: Leukemia cell growth inhibition, MTT, 72 h; type: cell-based; details: Homo sapiens
Summary of the method: as §2

K562/ADR = assay: Leukemia cell growth inhibition, MTT, 72 h; type: cell-based; details: Homo sapiens
Summary of the method: as §2

In the case of `C=C1C(=O)[C@]23[C@H](OC(=O)c4ccc(Cl)cc4)[C@H]1CC[C@H]2[C@@]12CO[C@@]3(O)[C@@H](O)[C@@H]1C(C)(C)CC[C@@H]2OC(C)=O` [BS-OR-093], the IC50 (Hep-2) is reported as 1.42 µg/mL (≈ 2.61 µM), the IC90 (Hep-2) is reported as 6.91 µg/mL (≈ 12.7 µM) and the IC50 (CNE) is reported as 1.31 µg/mL (≈ 2.4 µM). It also gave an IC90 (CNE) of 5.02 µg/mL (≈ 9.21 µM), an IC50 (MGC-803) of 0.79 µg/mL (≈ 1.45 µM) and an IC90 (MGC-803) of 6.73 µg/mL (≈ 12.3 µM). The IC50 (Hela) was 1.02 µg/mL (≈ 1.87 µM), the IC90 (Hela) was 3.45 µg/mL (≈ 6.33 µM) and the IC50 (RPMI 8226) was 0.2 µg/mL (≈ 0.367 µM). It also gave an IC90 (RPMI 8226) of 1.55 µg/mL (≈ 2.84 µM), an IC50 (NB4) of 0.05 µg/mL (≈ 0.0917 µM) and an IC90 (NB4) of 0.47 µg/mL (≈ 0.862 µM). For the same compound, the “anti-NB4 cell line activity increased” value (NB4; as compared with oridonin) was 15 fold, the IC50 (Jurkat) was 0.44 µg/mL (≈ 0.807 µM) and the IC90 (Jurkat) was 3.03 µg/mL (≈ 5.56 µM). The IC50 (H9) was 0.06 µg/mL (≈ 0.11 µM), the IC90 (H9) was 0.33 µg/mL (≈ 0.605 µM) and the “anti-H9 cell line activity increased” value (H9; as compared with oridonin) was 22 fold. The IC50 (PANC-1) was 1.69 µg/mL (≈ 3.1 µM), the IC90 (PANC-1) was 9.36 µg/mL (≈ 17.2 µM) and the IC50 (Becap-37) was 1.1 µg/mL (≈ 2.02 µM). For the same compound, the IC90 (Becap-37) was 1.99 µg/mL (≈ 3.65 µM), the IC50 (U87-MG) was 0.56 µg/mL (≈ 1.03 µM) and the IC90 (U87-MG) was 1.89 µg/mL (≈ 3.47 µM). The IC50 (Hep G2) was 0.96 µg/mL (≈ 1.76 µM), the IC90 (Hep G2) was 7.13 µg/mL (≈ 13.1 µM) and the IC50 (CaEs-17) was 0.86 µg/mL (≈ 1.58 µM). The IC90 (CaEs-17) was 5.21 µg/mL (≈ 9.56 µM), the IC50 (MG-63) was 0.45 µg/mL (≈ 0.826 µM) and the IC90 (MG-63) was 2.31 µg/mL (≈ 4.24 µM). It also gave an IC50 (PC-3) of 1.6 µg/mL (≈ 2.94 µM), an IC90 (PC-3) of 5.12 µg/mL (≈ 9.39 µM) and an IC50 (A549) of 1.78 µg/mL (≈ 3.27 µM). It also gave an IC90 (A549) of 6.68 µg/mL (≈ 12.3 µM), an IC50 (RKO) of 0.41 µg/mL (≈ 0.752 µM) and an IC90 (RKO) of 0.92 µg/mL (≈ 1.69 µM). It also gave an IC50 (SK-OV-3) of 1.6 µg/mL (≈ 2.94 µM), an IC90 (SK-OV-3) of 5.12 µg/mL (≈ 9.39 µM) and an IC50 (Kasumi-1) of 0.41 µg/mL (≈ 0.752 µM). The IC90 (Kasumi-1) was 1.31 µg/mL (≈ 2.4 µM), the IC50 (K562/ADR) was 0.37 µg/mL (≈ 0.679 µM) and the IC90 (K562/ADR) was 1.57 µg/mL (≈ 2.88 µM).

`C=C1C(=O)[C@]23[C@H](OC(=O)c4ccc(C)cc4)[C@H]1CC[C@H]2[C@@]12CO[C@@]3(O)[C@@H](O)[C@@H]1C(C)(C)CCC2=O` [BS-OR-004] showed an IC50 (Hep-2) of 1.38 µg/mL (≈ 2.87 µM), an IC90 (Hep-2) of 6.79 µg/mL (≈ 14.1 µM) and an IC50 (CNE) of 0.95 µg/mL (≈ 1.98 µM). For the same compound, the IC90 (CNE) was 4.67 µg/mL (≈ 9.72 µM), the anti-CNE activity increased (CNE; in comparison with oridonin) was roughly 6 fold and the IC50 (MGC-803) was 0.65 µg/mL (≈ 1.35 µM). For the same compound, the IC90 (MGC-803) was 4.88 µg/mL (≈ 10.2 µM), the IC50 (Hela) was 1.28 µg/mL (≈ 2.66 µM) and the IC90 (Hela) was 3.87 µg/mL (≈ 8.05 µM). The IC50 (RPMI 8226) was 0.31 µg/mL (≈ 0.645 µM), the IC90 (RPMI 8226) was 1.77 µg/mL (≈ 3.68 µM) and the IC50 (NB4) was 0.13 µg/mL (≈ 0.271 µM). It also gave an IC90 (NB4) of 0.76 µg/mL (≈ 1.58 µM), an IC50 (Jurkat) of 0.62 µg/mL (≈ 1.29 µM) and an IC90 (Jurkat) of 2.7 µg/mL (≈ 5.62 µM). The IC50 (H9) was 0.34 µg/mL (≈ 0.708 µM), the IC90 (H9) was 0.83 µg/mL (≈ 1.73 µM) and the IC50 (PANC-1) was 1.31 µg/mL (≈ 2.73 µM). For the same compound, the IC90 (PANC-1) was 8.24 µg/mL (≈ 17.1 µM), the IC50 (Becap-37) was 0.66 µg/mL (≈ 1.37 µM) and the IC90 (Becap-37) was 3.3 µg/mL (≈ 6.87 µM). The IC50 (U87-MG) was 0.8 µg/mL (≈ 1.66 µM), the IC90 (U87-MG) was 3.24 µg/mL (≈ 6.74 µM) and the IC50 (Hep G2) was 0.85 µg/mL (≈ 1.77 µM). For the same compound, the IC90 (Hep G2) was 7.84 µg/mL (≈ 16.3 µM), the IC50 (CaEs-17) was 0.88 µg/mL (≈ 1.83 µM) and the IC90 (CaEs-17) was 4.58 µg/mL (≈ 9.53 µM). The IC50 (MG-63) was 0.33 µg/mL (≈ 0.687 µM), the IC90 (MG-63) was 0.87 µg/mL (≈ 1.81 µM) and the IC50 (PC-3) was 1.45 µg/mL (≈ 3.02 µM). The IC90 (PC-3) was 3.94 µg/mL (≈ 8.2 µM), the IC50 (A549) was 1.71 µg/mL (≈ 3.56 µM) and the IC90 (A549) was 4.9 µg/mL (≈ 10.2 µM). The IC50 (RKO) was 0.31 µg/mL (≈ 0.645 µM), the IC90 (RKO) was 0.87 µg/mL (≈ 1.81 µM) and the IC50 (SK-OV-3) was 1.45 µg/mL (≈ 3.02 µM). It also gave an IC90 (SK-OV-3) of 3.94 µg/mL (≈ 8.2 µM), an IC50 (Kasumi-1) of 0.41 µg/mL (≈ 0.853 µM) and an IC90 (Kasumi-1) of 1.68 µg/mL (≈ 3.5 µM). For the same compound, the IC50 (K562/ADR) was 0.41 µg/mL (≈ 0.853 µM) and the IC90 (K562/ADR) was 1.72 µg/mL (≈ 3.58 µM).
